ChEMBL document CHEMBL5223107 (Bioorg Med Chem Lett, 2022)

What was measured:
Androgen receptor = molecular target: T1, Androgen receptor (Homo sapiens, UniProt P10275); assay: Inhibition of androgen receptor in human LNCaP cells assessed as inhibition of AR transcription activity by dual-luciferase reporter assays; assay type: cell-based
T1 sequence (P10275 whole entry): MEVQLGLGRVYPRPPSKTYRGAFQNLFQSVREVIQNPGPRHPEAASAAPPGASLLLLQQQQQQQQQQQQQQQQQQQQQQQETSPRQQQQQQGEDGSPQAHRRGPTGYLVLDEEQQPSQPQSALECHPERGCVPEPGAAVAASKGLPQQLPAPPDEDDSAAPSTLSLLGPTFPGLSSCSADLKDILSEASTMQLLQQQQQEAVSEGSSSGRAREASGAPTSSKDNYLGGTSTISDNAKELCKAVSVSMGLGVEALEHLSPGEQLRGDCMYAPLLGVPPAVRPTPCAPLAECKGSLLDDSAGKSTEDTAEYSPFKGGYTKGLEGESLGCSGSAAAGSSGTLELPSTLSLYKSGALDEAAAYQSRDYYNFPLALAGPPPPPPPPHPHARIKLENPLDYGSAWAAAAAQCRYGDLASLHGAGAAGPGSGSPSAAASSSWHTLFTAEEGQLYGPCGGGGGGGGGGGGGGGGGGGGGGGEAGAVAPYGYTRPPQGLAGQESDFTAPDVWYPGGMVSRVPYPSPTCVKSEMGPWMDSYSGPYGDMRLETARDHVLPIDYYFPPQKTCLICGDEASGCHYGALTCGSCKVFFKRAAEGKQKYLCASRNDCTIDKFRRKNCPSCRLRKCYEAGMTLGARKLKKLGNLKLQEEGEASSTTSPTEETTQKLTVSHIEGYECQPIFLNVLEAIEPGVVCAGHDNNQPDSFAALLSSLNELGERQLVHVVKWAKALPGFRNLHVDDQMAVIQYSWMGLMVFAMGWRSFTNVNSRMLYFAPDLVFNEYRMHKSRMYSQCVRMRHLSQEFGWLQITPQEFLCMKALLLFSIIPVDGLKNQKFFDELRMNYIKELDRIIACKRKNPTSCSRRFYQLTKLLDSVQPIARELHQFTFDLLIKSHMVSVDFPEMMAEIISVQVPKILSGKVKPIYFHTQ

CWR22R = assay: Antiproliferative activity against human 22Rv1 cells assessed as cell growth inhibition incubated for 72 hrs by MTT assay; assay type: functional, cell-based; conditions: 22Rv1, 72 h

SMILES	IC50 (Androgen receptor) [µM]	IC50 (CWR22R) [µM]
C=C(C)Cc1c(C)c(O)c(O)c(C=O)c1COCc1ccccc1	> 5	
COc1ccccc1-c1c(C)c(O)c(O)c(C=O)c1COCc1ccccc1	> 5	
Cc1c(O)c(O)c(C=O)c(COCc2ccccc2)c1-c1ccccc1OC(F)(F)F	> 5	
Cc1c(O)c(O)c(C=O)c(COCc2ccccc2)c1-c1ccc(Cl)cc1C(F)(F)F	> 5	
Cc1c(O)c(O)c(C=O)c(COCc2ccccc2)c1-c1ccccc1Br	> 5	
Cc1c(O)c(O)c(C=O)c(COCc2ccccc2)c1-c1ccccc1C#N	> 5	
Cc1c(O)c(O)c(C=O)c(COCc2ccccc2)c1-c1ccc(Cl)cc1	4.9	
Cc1c(O)c(O)c(C=O)c(COCc2ccc(C(F)(F)F)cc2)c1-c1ccccc1	3.32	
Cc1c(O)c(O)c(C=O)c(COCc2cccc(F)c2)c1-c1ccc(F)cc1	2.58	
Cc1c(O)c(O)c(C=O)c(COCc2ccccc2)c1-c1ccc(-c2ccccc2)cc1	> 5	
Cc1c(O)c(O)c(C=O)c(COCc2ccccc2F)c1-c1ccc(F)cc1	> 5	
Cc1cc(CO[C@H]2CC[C@@]3(C)C(=CC[C@@H]4[C@@H]3CC[C@]3(C)C(=O)CC[C@@H]43)C2)c(C=O)c(O)c1O	> 5	
Cc1c(O)c(O)c(C=O)c(COCc2ccccc2)c1-c1ccc(C(F)(F)F)cc1	1.23	
C=CCc1c(C)c(O)c(O)c(C=O)c1COCc1ccccc1	> 5	
Cc1ccc(-c2c(C)c(O)c(O)c(C=O)c2COCc2ccccc2)cc1	3.27	
Cc1c(O)c(O)c(C=O)c2c1[C@@H](c1ccc(C(=O)O[C@H]3CC[C@@]4(C)C(=CC[C@H]5[C@@H]6CC[C@H]([C@H](C)CCCC(C)C)[C@@]6(C)CC[C@@H]54)C3)cc1)CC2	> 5	
Cc1c(O)c(O)c(C=O)c(COCc2ccc(F)cc2)c1-c1ccccc1	2.38	
Cc1c(O)c(O)c(C=O)c(COCc2ccccc2)c1-c1ccc(C(F)(F)F)cc1Br	4.08	
Cc1c(O)c(O)c(C=O)c(CSCCC(C)C)c1-c1ccccc1	> 5	
Cc1c(O)c(O)c(C=O)c2c1C1(CC2)c2ccccc2-c2ccccc21	> 5	
Cc1c(O)c(O)c(C=O)c(COCc2ccccc2)c1-c1ccc(Br)cc1F	3.39	
CCc1c(O)c(O)c(C=O)c(COCc2ccccc2)c1-c1ccccc1	> 5	
Cc1c(O)c(O)c(C=O)c(COCc2ccccc2)c1-c1ccc(F)cc1Cl	> 5	
Cc1c(O)c(O)c(C=O)c(COCc2ccccc2)c1-c1ccccc1Cl	> 5	
Cc1c(O)c(O)c(C=O)c(COCc2ccccc2)c1-c1ccc(Br)cc1	3.47	
COc1ccc(-c2c(C)c(O)c(O)c(C=O)c2COCc2ccccc2)cc1	> 5	

SMILES	IC50 (Androgen receptor) [µM]	IC50 (CWR22R) [µM]
Cc1cc(C)cc(-c2c(C)c(O)c(O)c(C=O)c2COCc2ccccc2)c1	> 5	
Cc1c(C)c(COCc2ccccc2)c(C=O)c(O)c1O	> 5	
Cc1c(O)c(O)c(C=O)c(COCc2ccccc2C(F)(F)F)c1-c1ccccc1	2.54	
Cc1c(O)c(O)c(C=O)c2c1C(C#Cc1ccc(Br)cc1)CC2 (stereo not drawn)	> 5	
COc1ccc(COCc2cc(C)c(O)c(O)c2C=O)cc1	> 5	
Cc1c(O)c(O)c(C=O)c(COCc2ccccc2)c1-c1ccc(OC(F)(F)F)cc1	4.49	
Cc1c(O)c(O)c(C=O)c(COCc2ccccc2)c1-c1ccc(C(F)(F)F)cc1Cl	3.25	
CC(C)c1cc(COCc2ccccc2)c(C=O)c(O)c1O	> 5	
Cc1c(O)c(O)c(C=O)c(COCc2cccc(Cl)c2Cl)c1-c1ccccc1	2.81	
Cc1c(O)c(O)c(C=O)c(COCc2ccccc2F)c1-c1ccc(C(F)(F)F)cc1	2.52	
Cc1c(O)c(O)c(C=O)c(COCc2ccccc2)c1-c1ccc(Cl)cc1Br	> 5	
COc1cccc(COCc2c(C=O)c(O)c(O)c(C)c2-c2ccccc2)c1	> 5	
Cc1c(O)c(O)c(C=O)c(COCc2ccccc2)c1-c1cccc(Br)c1F	> 5	
Cc1c(O)c(O)c(C=O)c(COCc2ccc(OC(F)(F)F)cc2)c1-c1ccccc1	2.72	
Cc1c(O)c(O)c(C=O)c(CO[C@H]2CC[C@@]3(C)C(=CC[C@@H]4[C@@H]3CC[C@]3(C)C(=O)CC[C@@H]43)C2)c1-c1ccccc1	3.22	
Cc1c(O)c(O)c(C=O)c(COCc2ccccc2)c1-c1cc(F)ccc1F	> 5	
COC(=O)c1ccc(-c2c(C)c(O)c(O)c(C=O)c2COCc2ccccc2)cc1	4.23	
COc1ccccc1COCc1c(C=O)c(O)c(O)c(C)c1-c1ccccc1	> 5	
C=CCc1c(C)c(O)c(O)c(C=O)c1COCc1ccc(OC)cc1	> 5	
Cc1c(O)c(O)c(C=O)c(COCc2ccccc2)c1-c1ccc(Br)c(F)c1	2.19	
Cc1c(O)c(O)c(C=O)c(COCc2ccccc2)c1-c1ccccc1C(F)(F)F	> 5	
Cc1cccc(COCc2c(C=O)c(O)c(O)c(C)c2-c2ccccc2)c1	4.53	
Cc1c(O)c(O)c(C=O)c(COCc2ccccc2)c1-c1ccc(F)c(F)c1	2.05	
Cc1c(O)c(O)c(C=O)c(COCc2ccccc2)c1-c1ccccc1	> 5	
Cc1c(O)c(O)c(C=O)c(COCc2ccc(F)cc2)c1-c1ccc(C(F)(F)F)cc1	2.14	
Cc1c(O)c(O)c(C=O)c(COCc2cccc(F)c2)c1-c1cccc(F)c1	2.89	

SMILES	IC50 (Androgen receptor) [µM]	IC50 (CWR22R) [µM]
Cc1c(O)c(O)c(C=O)c(COCc2ccccc2)c1-c1ccc(F)cc1F	2.3	
Cc1c(O)c(O)c(C=O)c(COCc2ccc(F)cc2)c1-c1cccc(F)c1	2.09	
CCc1cc(COCc2ccccc2)c(C=O)c(O)c1O	> 5	
Cc1c(O)c(O)c(C=O)c(COCc2ccccc2)c1-c1ccc(C(C)(C)C)cc1	3.51	
Cc1cc(COCc2ccccc2)c(C=O)c(O)c1O	> 5	
CC(C)=CCC/C(C)=C/COCc1cc(C)c(O)c(O)c1C=O	> 5	
Cc1ccc(F)cc1-c1c(C)c(O)c(O)c(C=O)c1COCc1ccccc1	> 5	
Cc1cccc(-c2c(C)c(O)c(O)c(C=O)c2COCc2ccccc2)c1	> 5	
Cc1ccccc1-c1c(C)c(O)c(O)c(C=O)c1COCc1ccccc1	> 5	
CNC(=O)c1ccc(N2C(=S)N(c3ccc(C#N)c(C(F)(F)F)c3)C(=O)C2(C)C)cc1F [ENZALUTAMIDE]		46.3
Cc1c(O)c(O)c(C=O)c(COCc2ccccc2F)c1-c1cccc(F)c1	> 5	
Cc1c(O)c(O)c(C=O)c(COCc2cccc(F)c2)c1-c1ccccc1	4.05	
C#CCOCc1c(C=O)c(O)c(O)c(C)c1-c1ccccc1	> 5	
Cc1c(O)c(O)c(C=O)c(COCc2ccccc2C(F)(F)F)c1-c1cccc(F)c1	> 5	
Cc1c(O)c(O)c(C=O)c(COCc2ccccc2)c1-c1cccs1	> 5	
Cc1c(O)c(O)c(C=O)c(COCc2ccccc2)c1-c1ccc(F)cc1	> 5	
Cc1c(O)c(O)c(C=O)c(COCc2ccccc2)c1-c1ccc([N+](=O)[O-])cc1	3.74	
Cc1c(O)c(O)c(C=O)c(COCc2cccc(F)c2)c1-c1ccc(C(F)(F)F)cc1	2.09	
Cc1c(O)c(O)c(C=O)c(COCc2ccc(F)cc2)c1-c1ccc(F)cc1	2.41	
Cc1c(O)c(O)c(C=O)c(COCc2ccccc2)c1CO[Si](C)(C)C	> 5	
Cc1c(O)c(O)c(C=O)c(COCc2ccccc2)c1-c1cccc2ccccc12	> 5	
Cc1ccc(COCc2c(C=O)c(O)c(O)c(C)c2-c2ccccc2)cc1	> 5	
Cc1c(O)c(O)c(C=O)c(COCc2ccccc2)c1-c1cc(C(F)(F)F)cc(C(F)(F)F)c1	4.39	
Cc1c(O)c(O)c(C=O)c(COCc2ccccc2F)c1-c1ccccc1	> 5	
Cc1c(O)c(O)c(C=O)c(COCc2cccc(C(F)(F)F)c2)c1-c1ccccc1	3.05	
Cc1c(O)c(O)c(C=O)c(COCc2cccc3ccccc23)c1-c1ccccc1	> 5	
